Several values for one entry are separate records, joined by “and”; a condition that tells them apart may be missing. Equal values may be shown once.
Tests used:
[1] = molecular target: T1, Nonstructural protein 3 (Zika virus, UniProt A0A024AXB9); test: (§1) Functional biochemical assay to identify treatments for viral infectious disease that targets Zika NS2B-NS3 protease. Utilizing a direct enzyme activity measurement method, reading the fluorescence intensity is used to characterize the relative potency of inhibitors as IC50. Synthetic construct has been made based on Zika virus (strain PRVABC59) by Centre for Medicines Discovery, University of Oxford, and the assay has been performed by Stanford University.The protocol is publicly available: dx.doi.org/10.17504/protocols.io.x54v9r83zv3e/v1
T1 sequence (A0A024AXB9 whole entry): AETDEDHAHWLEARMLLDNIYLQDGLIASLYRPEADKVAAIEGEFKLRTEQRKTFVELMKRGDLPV

[2] = molecular target: T1, Nonstructural protein 3; test: Functional biochemical assay to identify treatments for viral infectious disease that targets Zika NS2B-NS3 protease. Utilizing a direct enzyme activity measurement method, reading the fluorescence intensity is used to characterize the relative potency of inhibitors as IC50.; design: species or system PRVABC59
[3] = molecular target: T1, Nonstructural protein 3; test: as §1, with “Enamine biological services, Bienta Ltd.The” for “Stanford University.The”, “dx.doi.org/10.17504/protocols.io.36wgqn273gk5/v1” for “dx.doi.org/10.17504/protocols.io.x54v9r83zv3e/v1”

Row | IC50 [1] | IC50 [2] | IC50 [3] | SMILES
1 | – | 297 nM | 320 nM and 334 nM | C=C(C)c1ccc(Cl)cc1[C@H](Nc1ccc2c(c1)CNC2)C(=O)NCC(F)F
2 | – | 1510 nM | 3580 nM and 3950 nM | C[C@H]1NCc2ccc(NC(=O)c3cc(Cl)cc4[nH]ncc34)cc21
3 | – | 16 nM and < 12 nM | 70 nM and 79 nM | N#CCc1cc(NC(=O)c2cc(F)cc3[nH]ncc23)cc2c1CNC2
4 | – | 2380 nM | 3720 nM | CC(=O)N[C@]1(C)C(=O)Nc2cc(F)cc(C(=O)Nc3ccc4c(c3)CNC4)c21
5 | – | 88 nM and 77 nM | 158 nM | CS(=O)(=O)c1cncc(-c2cc(F)cc(C(=O)Nc3ccc4c(c3)CNC4)c2)c1
6 | – | 126 nM | 714 nM | CC(=O)N1CC[C@]2(C1)C(=O)Nc1cccc(C(=O)Nc3ccc4c(c3)CNC4)c12
7 | – | 3990 nM | 7760 nM and 9210 nM | C[C@]1(S(C)(=O)=O)C(=O)Nc2cc(F)cc(C(=O)Nc3ccc4c(c3)CNC4)c21
8 | – | 20 nM and < 12 nM | 114 nM and 107 nM | O=C(NCC(F)F)[C@H](Nc1cnc2c(c1)CNC2)c1cc(Cl)cc(C2CC2)c1
9 | – | 192 nM | 317 nM and 284 nM | O=C(Nc1ccc2c(c1)CN[C@H]2CC1CC1)c1cc(F)cc2[nH]ncc12
10 | – | 4190 nM | 19600 nM | O=C(NCC(F)F)[C@H](Nc1ncc2c(n1)CNC2)c1cc(Cl)cc(C2CC2)c1
11 | – | 1330 nM | 3180 nM and 3280 nM | O=C(Nc1ccc2c(c1)CN[C@H]2C(=O)O)c1cc(F)cc2[nH]ncc12
12 | – | 488 nM | 646 nM and 1460 nM | C[C@H]1NCc2cc(NC(=O)c3cc(F)cc4[nH]ncc34)ccc21
13 | – | 358 nM | 636 nM | O=C(NCC(F)F)[C@H](Nc1ccc2c(c1)CNC2)c1cc(Br)ccc1C1CC1
14 | – | 19 nM and 13 nM | 106 nM and 91 nM | O=C(NCC(F)F)[C@H](Nc1cc2c(cc1Br)CNC2)c1cc(Cl)cc(C2CC2)c1
15 | – | 9190 nM | 18100 nM and > 25000 nM | CC1(C)NCc2cc(NC(=O)c3cc(F)cc4[nH]ncc34)ccc21
16 | – | 23 nM (2×) and 14 nM and 27 nM | 90 nM and 98 nM | COc1ccc(-c2nc3c(C(=O)Nc4ccc5c(c4)CNC5)cc(F)cc3[nH]2)nn1
17 | – | 44 nM and 37 nM | 201 nM | O=C(NCC(F)F)[C@H](Nc1ccc2c(c1)CNC2)c1cc(Br)cc2nc[nH]c12
18 | – | 4840 nM | 21500 nM | COC(=O)[C@H]1NCc2cc(NC(=O)c3cc(F)cc4[nH]ncc34)ccc21
19 | – | 22700 nM | > 25000 nM | CC(=O)N(c1ccc2c(c1)CNC2)[C@]1(c2cc(Cl)cc(C3CC3)c2)CN(C)C1=O

Second part, the molecule before the results:

Row | SMILES | IC50 [1] | IC50 [2] | IC50 [3]
20 | O=Cc1ccc(N2CCC(C(=O)O)CC2)o1 | 30400 nM | – | –
21 | O=Cc1ccc(N2CCCCCC2)cc1 | 65800 nM | – | –
22 | Nc1ccc2ccc(B(O)O)cc2c1 | 2500 nM | > 99500 nM | –
23 | O=Cc1ccc(N2CCC(C(=O)O)CC2)cc1 | 53700 nM | – | –
24 | Cc1cc(NS(=O)(=O)c2ccc(S(=O)(=O)F)cc2)c[nH]c1=O | 13100 nM | – | –
25 | CC[C@H]1CO[C@H](C)CN1c1ccc(C=O)cn1 | 43000 nM | – | –
26 | Cc1c(C=O)c2ccccn2c1C(=O)c1ccncc1 | 36400 nM | – | –
27 | NCCCn1c(C2CC2)cc(C(=O)Nc2cc([C@H]3CCOC3)ccn2)c1C1CC1 | – | > 25000 nM | > 25000 nM
28 | CN(C)C(=O)C[C@H]1NCc2cc(NC(=O)c3cc(F)cc4[nH]ncc34)ccc21 | – | 487 nM | 502 nM and 1320 nM
29 | O=C1Cc2c(cccc2C(=O)Nc2nnc3n2CCCS3)N1 | – | > 25000 nM | > 25000 nM
30 | Clc1cc(CNc2ncc3c(n2)CNC3)c2cn[nH]c2c1 | – | > 25000 nM | > 25000 nM
31 | CN(C)c1ccc(C=C(C#N)C(N)=O)cc1 | 31000 nM | – | –
32 | CC(C)(C)NC(=O)C[C@H]1NCc2cc(NC(=O)c3cc(Cl)cc4[nH]ncc34)ccc21 | – | 167 nM | 1070 nM and 985 nM
33 | CS(=O)(=O)NC(=O)C[C@H]1NCc2cc(NC(=O)c3cc(Cl)cc4[nH]ncc34)ccc21 | – | 650 nM | 2210 nM and 1700 nM
34 | O=C1Cc2c(cccc2C(=O)Nc2cnn(Cc3ccncc3)c2)N1 | – | > 25000 nM | > 25000 nM
35 | N[C@H]1Cc2ccc(NC(=O)c3cccc4c3CC(=O)N4)cc2C1 | – | 2770 nM | 7500 nM
36 | Cc1c(C(=O)Nc2cccc(CS(C)(=O)=O)c2)cc(C2CC2)n1C | – | > 25000 nM | > 25000 nM
37 | Cc1c(C(=O)Nc2cc(C3CCOCC3)ccn2)cc(C2CC2)n1C | – | > 25000 nM | > 25000 nM
38 | O=C1Cc2c(cccc2C(=O)Nc2ccc3c(c2)[C@H](O)CCO3)N1 | – | > 25000 nM | > 25000 nM

Row | SMILES | IC50 [1] | IC50 [2] | IC50 [3]
39 | Cc1c(C(=O)Nc2ccc3c(c2F)CCN(C)C3=O)cc(C2CC2)n1C | – | > 25000 nM | > 25000 nM
40 | NCCc1cccc(NC(=O)c2cccc3c2CC(=O)N3)c1 | – | 333 nM | 533 nM
41 | Cc1c(C(=O)Nc2cccc(-c3nc(C4CC4)no3)c2)cc(C2CC2)n1C | – | > 25000 nM | > 25000 nM
42 | Cc1cc(NC(=O)c2cc(C3CC3)n(C)c2C)ccc1OC1CCOCC1 | – | > 25000 nM | > 25000 nM
43 | N#Cc1cccc(-c2nc3c(C(=O)Nc4ccc(F)cc4)cc(Cl)cc3[nH]2)c1 | – | > 25000 nM | > 25000 nM
44 | Cc1c(C=O)c2ccccn2c1C#N | 24900 nM | – | –
45 | C[C@H](NC(=O)c1cccc2c1CC(=O)N2)c1nnc2n1CCCC2 | – | > 25000 nM | > 25000 nM
46 | O=Cc1nc(-c2ccccc2Cl)n2ccccc12 | 46300 nM | – | –
47 | N=C(N)NCCC[C@H](NC(=O)[C@H](Cc1ccc(CN)cc1)NC(=O)c1ccccc1)B(O)O | – | 508 nM and 353 nM and 260 nM and 186 nM and 245 nM and 211 nM (2×) and 238 nM and < 2.49 µM (9×) and 73 nM and 247 nM and 292 nM and 237 nM and 241 nM and 141 nM and 262 nM and 254 nM and 233 nM | 559 nM and 327 nM and 558 nM and 628 nM and 585 nM and 637 nM and 438 nM and 552 nM and 595 nM
48 | O=C1Cc2c(cccc2C(=O)Nc2nc([C@H]3CCCOC3)cs2)N1 | – | > 25000 nM | > 25000 nM
49 | NCc1cccc(NC(=O)c2cccc3c2CC(=O)N3)c1 | – | 1540 nM | 2320 nM
50 | N#Cc1cccc(-c2nc3c(C(=O)Nc4ccccn4)cc(Cl)cc3[nH]2)c1 | – | > 25000 nM | > 25000 nM
51 | N#Cc1cccc(-c2nc3c(C(=O)Nc4cccc(F)c4)cc(Cl)cc3[nH]2)c1 | – | > 25000 nM | > 25000 nM
52 | Cc1c(C(=O)Nc2cccc(CN3CCCC3=O)c2)cc(C2CC2)n1C | – | > 25000 nM | > 25000 nM
53 | CN(C)C(=O)C[C@H]1NCc2cc(NC(=O)c3cc(Cl)cc4[nH]ncc34)ccc21 | – | 481 nM | 2120 nM and 2360 nM
54 | O=Cc1ccc(N2CCCCC2)cc1 | 49800 nM | – | –
55 | Cc1nc(C=O)c2ccccn12 | 64500 nM | – | –
56 | O=C1Cc2c(cccc2C(=O)Nc2ccc3c(c2)CCNCC3)N1 | – | 1230 nM | 2110 nM

— ChEMBL document CHEMBL5604062, “ASAP - ZIKV NS2B-NS3 protease fluorescence dose response” (2024)
